Experimental data reported in patent US20250320213A1, “Nitrogen-Containing Heterocyclic Compounds” (Pfizer Inc., priority 2024, published 2025).

Tests used:
STAT6 = biological target: T1, STAT6 (Homo sapiens, UniProt P42226); assay: STAT6 Reporter Luciferase Assay (IL-13 stimulated HaCaT keratinocyte NanoLuc reporter cells); format: cell-based; settings: IL-13 stimulated HaCaT STAT6 NanoLuc reporter cells; read-out: Reporter EC50
T1 construct: stably transfected HaCaT keratinocyte cell line, which expresses NanoLuc luciferase reporter gene under the transcriptional control of the STAT6 responsive promoter; endogenous in cells; host or cells: HaCaT keratinocyte reporter cell line (stably transfected with a NanoLuc reporter)
T1 sequence (P42226 1-847): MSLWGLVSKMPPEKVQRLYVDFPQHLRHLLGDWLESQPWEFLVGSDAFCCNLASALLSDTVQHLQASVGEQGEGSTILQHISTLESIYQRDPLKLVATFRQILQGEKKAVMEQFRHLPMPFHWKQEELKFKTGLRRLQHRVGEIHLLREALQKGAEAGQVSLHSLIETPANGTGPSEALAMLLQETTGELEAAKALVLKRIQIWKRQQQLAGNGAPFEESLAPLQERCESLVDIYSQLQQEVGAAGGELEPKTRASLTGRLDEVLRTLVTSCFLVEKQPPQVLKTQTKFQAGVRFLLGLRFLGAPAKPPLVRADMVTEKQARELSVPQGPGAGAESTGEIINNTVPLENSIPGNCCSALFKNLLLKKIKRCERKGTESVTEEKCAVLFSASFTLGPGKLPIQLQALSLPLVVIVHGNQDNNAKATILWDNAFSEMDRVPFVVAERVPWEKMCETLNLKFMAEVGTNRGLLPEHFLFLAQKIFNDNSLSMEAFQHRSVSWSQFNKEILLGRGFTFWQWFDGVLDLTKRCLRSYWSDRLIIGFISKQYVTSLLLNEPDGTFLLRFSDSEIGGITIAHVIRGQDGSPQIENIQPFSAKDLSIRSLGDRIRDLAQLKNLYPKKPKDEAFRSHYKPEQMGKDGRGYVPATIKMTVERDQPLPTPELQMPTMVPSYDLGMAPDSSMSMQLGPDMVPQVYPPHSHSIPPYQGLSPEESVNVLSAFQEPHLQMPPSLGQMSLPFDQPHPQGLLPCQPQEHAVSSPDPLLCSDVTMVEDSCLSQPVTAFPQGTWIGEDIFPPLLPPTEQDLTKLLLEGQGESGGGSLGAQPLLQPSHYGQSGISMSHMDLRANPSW
How it was run: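 HaCaT cells stably carrying a NanoLuc reporter driven by the STAT6-responsive IL-13Ra2 promoter were preincubated with compounds for 2 h at 37 °C in 2% FBS medium. Cells were then stimulated with 0.12 nM IL-13 for 4 h, and luminescence was read after Nano-Glo substrate. Compounds ran as 11-point 4-fold dilutions in duplicate.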

[1] = test system: CCL17 secretion in peripheral human whole blood; assay: Human Whole Blood (HWB) CCL17 TR-FRET Assay (IL-13 stimulated CCL17 secretion); format: cell-based; settings: Homo sapiens, 48 h, human whole blood, IL-13 stimulated
How it was run: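 IC50 values reflect inhibition of IL-13-driven CCL17 release in human whole blood. Blood was preincubated with compound 2 h, stimulated 48 h at 37 °C with IL-13 (10 ng/mL final), and serum CCL17 was measured by TR-FRET.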

| EC50 (STAT6) [nM] | IC50 [1] [nM] | SMILES |
| --- | --- | --- |
| 17 | 125 | CC(C)n1nc(C(=O)NCc2ccc(NC(=O)N(C)C)cc2)c2c1CCN(c1ccc(C(=O)N3CCc4c(ncn4C4CC4)C3)cn1)C2 [Example 420, 5-(5-(1-cyclopropyl-4,5,6,7-tetrahydro-1H-imidazo[4,5-c]pyridine-5-carbonyl)pyridin-2-yl)-N-(4-(3,3-dimethylureido)benzyl)-1-isopropyl-4,5,6,7-tetrahydro-1H-pyrazolo[4,3-c]pyridine-3-carboxamide] |
| 333 | 1410 | CC(C)n1nc(C(=O)NCc2ccc(NC(=O)N(C)C)cc2)c2c1CCN(c1ccc(CC(N)=O)cn1)C2 [Example 430, 5-(5-(2-amino-2-oxoethyl)pyridin-2-yl)-N-(4-(3,3-dimethylureido)benzyl)-1-isopropyl-4,5,6,7-tetrahydro-1H-pyrazolo[4,3-c]pyridine-3-carboxamide] |
| 12 | 89 | CC(C)n1nc(C(=O)NCc2ccc(NC(=O)N(C)C)cc2)c2c1CCN(c1ccc(C(=O)N3Cc4cccc(C(=O)N(C)C)c4C3)cn1)C2 [Example 431, 5-(5-(4-(dimethylcarbamoyl)isoindoline-2-carbonyl)pyridin-2-yl)-N-(4-(3,3-dimethylureido)benzyl)-1-isopropyl-4,5,6,7-tetrahydro-1H-pyrazolo[4,3-c]pyridine-3-carboxamide] |
| 45 | 1050 | CC(C)n1ncc2c1CN(C(=O)c1ccc(N3CCc4c(c(C(=O)NCc5ccc(NC(=O)N(C)C)cc5)nn4C(C)C)C3)nc1)CC2 [Example 437, N-(4-(3,3-dimethylureido)benzyl)-1-isopropyl-5-(5-(1-isopropyl-4,5,6,7-tetrahydro-1H-pyrazolo[3,4-c]pyridine-6-carbonyl)pyridin-2-yl)-4,5,6,7-tetrahydro-1H-pyrazolo[4,3-c]pyridine-3-carboxamide] |
| 11 | 878 | COc1ccc2c(n1)CN(C(=O)c1ccc(N3CCc4c(c(C(=O)NCc5ccc(NC(=O)N(C)C)cc5)nn4C(C)C)C3)nc1)CC2 [Example 443, N-(4-(3,3-dimethylureido)benzyl)-1-isopropyl-5-(5-(2-methoxy-5,6,7,8-tetrahydro-1,7-naphthyridine-7-carbonyl)pyridin-2-yl)-4,5,6,7-tetrahydro-1H-pyrazolo[4,3-c]pyridine-3-carboxamide] |
| 21 | 93 | CC(C)n1nc(C(=O)NCc2ccc(N)cc2)c2c1[C@@H](C)CN(c1ccc(C(=O)N(C)C)cn1)C2 [Example 450, (S)-N-(4-aminobenzyl)-5-(5-(dimethylcarbamoyl)pyridin-2-yl)-1-isopropyl-7-methyl-4,5,6,7-tetrahydro-1H-pyrazolo[4,3-c]pyridine-3-carboxamide] |
| 3 | 47 | CC(C)n1nc(C(=O)NCc2ccc(-c3ncc[nH]3)cc2)c2c1C[C@H](C)N(c1ncc(C(=O)N(C)C)cn1)C2 [Example 451, (S)-N-(4-(1H-imidazol-2-yl)benzyl)-5-(5-(dimethylcarbamoyl)pyrimidin-2-yl)-1-isopropyl-6-methyl-4,5,6,7-tetrahydro-1H-pyrazolo[4,3-c]pyridine-3-carboxamide] |
| 3 | 16 | CC(C)n1nc(C(=O)NCc2ccc(NC(=O)N(C)C)cc2)c2c1C[C@H](C)N(c1ncc(C(=O)N(C)C)cn1)C2 [Example 452, (S)-5-(5-(dimethylcarbamoyl)pyrimidin-2-yl)-N-(4-(3,3-dimethylureido)benzyl)-1-isopropyl-6-methyl-4,5,6,7-tetrahydro-1H-pyrazolo[4,3-c]pyridine-3-carboxamide] |
| 2150 | 12100 | CNC(=O)Nc1ccc(CNC(=O)c2nn(C(C)C)c3c2CN(c2ccc(C(N)=O)cn2)CC3)cc1 [Example 453, 5-(5-carbamoylpyridin-2-yl)-1-isopropyl-N-(4-(3-methylureido)benzyl)-4,5,6,7-tetrahydro-1H-pyrazolo[4,3-c]pyridine-3-carboxamide] |
| 128 | 720 | CNC(=O)Nc1ccc(CNC(=O)c2nn(C(C)C)c3c2CN(c2ccc(C(=O)NC)cn2)CC3)cc1 [Example 454, 1-isopropyl-5-(5-(methylcarbamoyl)pyridin-2-yl)-N-(4-(3-methylureido)benzyl)-4,5,6,7-tetrahydro-1H-pyrazolo[4,3-c]pyridine-3-carboxamide] |
| 742 | 579 | CNC(=O)c1ccc(N2CCc3c(c(C(=O)NCc4ccc(NC(N)=O)cc4)nn3C(C)C)C2)nc1 [Example 456, 1-isopropyl-5-(5-(methylcarbamoyl)pyridin-2-yl)-N-(4-ureidobenzyl)-4,5,6,7-tetrahydro-1H-pyrazolo[4,3-c]pyridine-3-carboxamide] |
| 5960 | 5010 | CC(C)n1nc(C(=O)NCc2ccc(NC(N)=O)cc2)c2c1CCN(c1ccc(C(N)=O)cn1)C2 [Example 457, 5-(5-carbamoylpyridin-2-yl)-1-isopropyl-N-(4-ureidobenzyl)-4,5,6,7-tetrahydro-1H-pyrazolo[4,3-c]pyridine-3-carboxamide] |
| 173 | > 7650 | CC(C)n1nc(C(=O)Nc2cccc(C(N)=O)c2F)c2c1[C@@H](C)CN(c1ccc(C(=O)N(C)C)cn1)C2 [Example 458, (S)-N-(3-carbamoyl-2-fluorophenyl)-5-(5-(dimethylcarbamoyl)pyridin-2-yl)-1-isopropyl-7-methyl-4,5,6,7-tetrahydro-1H-pyrazolo[4,3-c]pyridine-3-carboxamide] |
| 2 | 18 | Cc1nn(C)c(=O)n1-c1ccc(N2Cc3c(C(=O)NCc4ccc(NC(=O)N(C)C)cc4)nn(C(C)C)c3[C@@H](C)C2)nc1 [Example 466, (S)-5-(5-(1,3-dimethyl-5-oxo-1,5-dihydro-4H-1,2,4-triazol-4-yl)pyridin-2-yl)-N-(4-(3,3-dimethylureido)benzyl)-1-isopropyl-7-methyl-4,5,6,7-tetrahydro-1H-pyrazolo[4,3-c]pyridine-3-carboxamide] |
| 1 | 5 | CC(C)n1nc(C(=O)NCc2ccc(NC(=O)N3CCN(C)CC3)cc2)c2c1[C@@H](C)CN(c1ccc(C(=O)N(C)C)cn1)C2 [Example 470, (S)-5-(5-(dimethylcarbamoyl)pyridin-2-yl)-1-isopropyl-7-methyl-N-(4-(4-methylpiperazine-1-carboxamido)benzyl)-4,5,6,7-tetrahydro-1H-pyrazolo[4,3-c]pyridine-3-carboxamide] |
| 432 | 3290 | Cc1nn(C)c(=O)n1-c1ccc(CNC(=O)c2nn(C(C)C)c3c2CN(c2ccc(C(=O)N(C)C)cn2)C[C@@H]3C)cc1 [Example 471, (S)-N-(4-(1,3-dimethyl-5-oxo-1,5-dihydro-4H-1,2,4-triazol-4-yl)benzyl)-5-(5-(dimethylcarbamoyl)pyridin-2-yl)-1-isopropyl-7-methyl-4,5,6,7-tetrahydro-1H-pyrazolo[4,3-c]pyridine-3-carboxamide] |
| 0.3 | 5 | CC(C)n1nc(C(=O)NCc2ccc(NC(=O)N(C)C)cc2)c2c1C(O)CN(c1ccc(C(=O)N(C)C)cn1)C2 (centres unmarked) [Example 473, 5-(5-(dimethylcarbamoyl)pyridin-2-yl)-N-(4-(3,3-dimethylureido)benzyl)-7-hydroxy-1-isopropyl-4,5,6,7-tetrahydro-1H-pyrazolo[4,3-c]pyridine-3-carboxamide] |
| 1 | 9 | CCn1nc(C(=O)NCc2ccc(NC(=O)NC)cc2)c2c1[C@@H](C)CN(c1ccc(N3CCCC3=O)cn1)C2 [Example 476, (S)-1-ethyl-7-methyl-N-(4-(3-methylureido)benzyl)-5-(5-(2-oxopyrrolidin-1-yl)pyridin-2-yl)-4,5,6,7-tetrahydro-1H-pyrazolo[4,3-c]pyridine-3-carboxamide] |
| 0.4 | 4 | CCn1nc(C(=O)NCc2ccc(NC(=O)N(C)C)cc2)c2c1[C@@H](C)CN(c1ccc(C(=O)N3Cc4cccnc4C3)cn1)C2 [Example 477, (S)-5-(5-(6,7-dihydro-5H-pyrrolo[3,4-b]pyridine-6-carbonyl)pyridin-2-yl)-N-(4-(3,3-dimethylureido)benzyl)-1-ethyl-7-methyl-4,5,6,7-tetrahydro-1H-pyrazolo[4,3-c]pyridine-3-carboxamide] |
